# Reference: ChEMBL document CHEMBL1201862, “PubChem BioAssay data set” (2004)
# Calls of active or inactive are those of the source.
# Columns and labels:
# Cytochrome P450 2C19 = Cytochrome P450 2C19 (Homo sapiens, UniProt P33261); assay: Cytochrome panel assay with activity outcomes. Panel member name: p450-cyp2c19 Compounds with AC50 equal or less than 10 uM are considered active; type: functional
# Cytochrome P450 1A2 = molecular target: T1, Cytochrome P450 1A2 (Homo sapiens, UniProt P05177);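 note: PubChem cytochrome P450 panel assay, CYP1A2 panel member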
# T1 sequence (P05177 whole entry): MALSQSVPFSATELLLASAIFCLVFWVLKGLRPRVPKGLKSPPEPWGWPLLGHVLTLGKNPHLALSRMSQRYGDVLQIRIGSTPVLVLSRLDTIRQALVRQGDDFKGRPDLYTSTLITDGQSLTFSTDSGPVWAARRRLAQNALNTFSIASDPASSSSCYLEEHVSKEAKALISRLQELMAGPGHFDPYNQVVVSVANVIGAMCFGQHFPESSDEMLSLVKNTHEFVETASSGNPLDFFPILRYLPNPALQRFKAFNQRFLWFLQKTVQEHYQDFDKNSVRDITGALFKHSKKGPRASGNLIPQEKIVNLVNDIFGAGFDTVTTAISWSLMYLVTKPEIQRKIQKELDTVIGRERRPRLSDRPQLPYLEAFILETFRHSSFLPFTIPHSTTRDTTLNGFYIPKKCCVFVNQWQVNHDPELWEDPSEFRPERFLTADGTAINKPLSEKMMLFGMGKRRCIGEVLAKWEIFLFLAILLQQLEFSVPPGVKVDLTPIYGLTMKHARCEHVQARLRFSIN
# Cytochrome P450 2C9 = Cytochrome P450 2C9 (Homo sapiens, UniProt P11712)
# Cytochrome P450 3A4 = Cytochrome P450 3A4 (Homo sapiens, UniProt P08684);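 note: CYP3A4 tested as one member of a cytochrome P450 panel screen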
# Cytochrome P450 2D6 = Cytochrome P450 2D6 (Homo sapiens, UniProt P10635);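 note: CYP2D6 member of a cytochrome P450 panel assay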
# Streptokinase A = molecular target: T2, Streptokinase A (Streptococcus pyogenes serotype M1, UniProt P10520); assay: S. pyogenes streptokinase expression inhibitors, potency, dose response, plasminogen activation absorbance, OD405 (AID 1914); type: functional, Streptococcus pyogenes M1 GAS;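 note: secreted streptokinase activity via plasminogen activation per viability signal from cell pellet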
# T2 sequence (P10520 whole entry): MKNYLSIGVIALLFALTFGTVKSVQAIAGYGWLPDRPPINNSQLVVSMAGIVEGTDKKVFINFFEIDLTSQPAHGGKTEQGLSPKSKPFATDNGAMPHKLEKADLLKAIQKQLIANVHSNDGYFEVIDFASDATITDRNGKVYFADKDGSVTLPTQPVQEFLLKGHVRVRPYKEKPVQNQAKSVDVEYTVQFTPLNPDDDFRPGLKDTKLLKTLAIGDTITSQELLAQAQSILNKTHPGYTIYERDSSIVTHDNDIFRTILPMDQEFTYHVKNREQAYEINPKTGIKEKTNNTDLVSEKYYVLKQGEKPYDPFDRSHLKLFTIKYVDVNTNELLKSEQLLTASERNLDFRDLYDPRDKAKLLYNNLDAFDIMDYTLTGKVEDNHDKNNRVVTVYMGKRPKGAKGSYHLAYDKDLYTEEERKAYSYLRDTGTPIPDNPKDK
# Streptococcus = assay: Group A Streptococcus viability loss, dose response, counter-screen for streptokinase expression inhibitor project, luminescence, BacTiterGlo (AID 1915); type: functional, organism-based;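 note: potency for reduction of bacterial viability or growth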
# [1] = tested on: Streptococcus sp. 'group A'; assay: growth inhibition of control SK(-) GAS strain, dose response, counter-screen for streptokinase expression inhibitor project, luminescence, kanamycin, BacTiterGlo, confirmation (AID 1900); type: functional, organism-based
# [2] = inhibitors of intracellular T. cruzi replication, confirmation, NIH3T3 host cells, beta-gal luminescence (AID 2044); type: functional, cell-based;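 note: intracellular parasites grown in NIH/3T3 mouse fibroblasts as host cells; luminescent beta-galactosidase reporter signal from transgenic T. cruzi replicating inside host cells; inhibitors lower the luminescence signal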
# [3] = cytotoxicity toward NIH3T3 fibroblasts, dose response, counter-screen, cell-based, ATP luminescence, mouse fibroblasts (AID 2010); type: functional;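 note: cells exposed to compound for about 90 hours before reading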
# [4] = Luminescence Cell-Based Dose Retest to Confirm Inhibitors of Cancer Stem Cells. [Related pubchem assays (depositor defined):AID2717, AID2721]; type: functional; conditions: Homo sapiens
# Cytochrome P450 2C9, sequence (P11712 whole entry): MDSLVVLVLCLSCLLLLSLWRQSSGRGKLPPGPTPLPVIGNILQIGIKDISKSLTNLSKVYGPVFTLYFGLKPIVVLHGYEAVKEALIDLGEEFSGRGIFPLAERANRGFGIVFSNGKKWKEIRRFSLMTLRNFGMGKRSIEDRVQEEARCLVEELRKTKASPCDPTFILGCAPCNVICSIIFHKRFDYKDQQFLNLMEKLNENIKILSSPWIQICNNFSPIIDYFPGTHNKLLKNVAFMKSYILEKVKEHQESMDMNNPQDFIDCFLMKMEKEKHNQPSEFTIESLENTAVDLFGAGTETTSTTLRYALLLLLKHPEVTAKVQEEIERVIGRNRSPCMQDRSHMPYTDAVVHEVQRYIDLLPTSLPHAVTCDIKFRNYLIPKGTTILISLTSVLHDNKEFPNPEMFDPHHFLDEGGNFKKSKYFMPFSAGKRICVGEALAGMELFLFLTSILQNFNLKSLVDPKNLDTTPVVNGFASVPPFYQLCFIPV
# Cytochrome P450 2C19, sequence (P33261 whole entry): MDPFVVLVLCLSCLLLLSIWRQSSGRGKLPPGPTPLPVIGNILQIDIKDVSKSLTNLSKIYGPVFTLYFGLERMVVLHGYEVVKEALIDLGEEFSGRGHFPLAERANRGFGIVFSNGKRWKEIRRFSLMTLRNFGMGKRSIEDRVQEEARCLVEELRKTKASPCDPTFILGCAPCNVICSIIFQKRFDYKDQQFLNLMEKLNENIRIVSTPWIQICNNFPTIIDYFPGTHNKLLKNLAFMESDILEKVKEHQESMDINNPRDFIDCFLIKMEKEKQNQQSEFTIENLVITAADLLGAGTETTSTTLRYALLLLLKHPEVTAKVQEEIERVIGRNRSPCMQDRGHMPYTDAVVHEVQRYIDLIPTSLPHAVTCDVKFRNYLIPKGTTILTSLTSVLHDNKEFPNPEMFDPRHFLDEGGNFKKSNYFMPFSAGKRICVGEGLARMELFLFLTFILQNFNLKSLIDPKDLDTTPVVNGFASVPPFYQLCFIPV
# Cytochrome P450 2D6, sequence (P10635 whole entry): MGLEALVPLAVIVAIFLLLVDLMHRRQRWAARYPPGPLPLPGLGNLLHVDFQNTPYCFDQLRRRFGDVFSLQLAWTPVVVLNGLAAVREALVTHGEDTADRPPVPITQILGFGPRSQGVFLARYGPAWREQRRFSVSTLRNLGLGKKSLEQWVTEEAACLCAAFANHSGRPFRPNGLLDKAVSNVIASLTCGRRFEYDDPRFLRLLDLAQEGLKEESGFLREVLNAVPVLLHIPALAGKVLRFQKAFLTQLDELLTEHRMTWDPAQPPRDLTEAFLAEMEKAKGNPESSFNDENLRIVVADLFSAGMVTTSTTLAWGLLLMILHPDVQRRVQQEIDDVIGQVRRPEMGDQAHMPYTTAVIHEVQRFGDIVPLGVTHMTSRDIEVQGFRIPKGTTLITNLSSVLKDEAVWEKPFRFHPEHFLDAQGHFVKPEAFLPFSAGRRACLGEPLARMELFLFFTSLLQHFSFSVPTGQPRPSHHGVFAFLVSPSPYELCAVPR
# Cytochrome P450 3A4, sequence (P08684 whole entry): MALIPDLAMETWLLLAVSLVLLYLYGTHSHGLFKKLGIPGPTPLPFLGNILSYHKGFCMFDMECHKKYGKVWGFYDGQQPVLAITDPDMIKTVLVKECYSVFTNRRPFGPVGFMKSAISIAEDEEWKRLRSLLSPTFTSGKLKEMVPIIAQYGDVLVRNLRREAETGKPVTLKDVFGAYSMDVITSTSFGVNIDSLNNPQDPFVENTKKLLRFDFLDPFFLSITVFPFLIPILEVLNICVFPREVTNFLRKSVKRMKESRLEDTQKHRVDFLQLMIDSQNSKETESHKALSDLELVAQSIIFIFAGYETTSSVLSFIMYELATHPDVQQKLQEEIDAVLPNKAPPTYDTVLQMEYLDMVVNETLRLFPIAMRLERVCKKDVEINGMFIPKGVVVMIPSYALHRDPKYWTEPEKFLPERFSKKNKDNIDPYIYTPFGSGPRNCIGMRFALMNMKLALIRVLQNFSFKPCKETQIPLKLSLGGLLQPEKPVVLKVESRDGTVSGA
structure (smiles),measurement,setting,value
O=C1[C@H]2[C@H]3[C@H](O)[C@H](O)C/C(=N/OCc4ccccc4)[C@H]3CC[C@@H]2C(=O)N1Cc1ccc2c(c1)OCO2,AC50,Cytochrome P450 2C19; read-out: AC50,2 µM (inconclusive)
O=C(c1csnn1)N1CCC2(CCCN(Cc3cc(C(F)(F)F)cc(C(F)(F)F)c3)C2)CC1,AC50,Cytochrome P450 1A2,12.6 µM (inconclusive)
same,AC50,Cytochrome P450 2C9,39.8 µM (inconclusive)
COC(=O)[C@@]1(Cc2ccc(OC)cc2)[C@H]2c3cc(C(=O)N4CCCC4)n(CCCNc4ncc(C(F)(F)F)cc4Cl)c3C[C@H]2CN1C(=O)c1ccccc1,AC50,Cytochrome P450 1A2,31.6 µM (inconclusive)
same,AC50,Cytochrome P450 3A4,1.26 µM (inconclusive)
CC(C)CN=C(S)NC1CC2CCCC(C1)N2Cc1ccco1 (stereo not drawn),AC50,Cytochrome P450 2C19; read-out: AC50,39.8 µM (inconclusive)
COCOc1ccc(Br)cc1C(=O)[C@H]1O[C@H]1c1cccc(OC)c1,AC50,Cytochrome P450 2D6,3.16 µM (inconclusive)
S=c1[nH]cnc2scc(-c3ccc(Cl)cc3)c12,EC50,Streptokinase A,> 150 µM (not active)
CC1CCN(c2ccccc2NC(=O)c2ccc(Br)o2)CC1,EC50,Streptokinase A,43.6 µM (active)
same,EC50,Streptococcus,10.3 µM (active)
same,EC50,[1],5.4 µM (active)
O=C(Nc1ccc(-c2csc(-c3ccccc3)n2)cc1)c1ccccc1Cl,EC50,[2],1.57 µM (active)
same,AC50,Cytochrome P450 1A2,0.0708 µM (inconclusive)
same,EC50,[3],9.89 µM (active)
CCN(CC)c1cc(C)c2cc(NC(=O)CNC(C)=O)ccc2n1,AC50,Cytochrome P450 2C19,inconclusive
same,AC50,Cytochrome P450 2C9,0.891 µM (inconclusive)
O=[N+]([O-])c1ccccc1-c1ccc(C(=S)N2CCN(c3ccccc3)CC2)o1,AC50,[4],> 195 µM (inactive)
COc1ccc(C2C3=C(CC(C)(C)CC3=O)Oc3ncn(CC(C)C)c(=N)c32)cc1 (stereo not drawn),AC50,Cytochrome P450 2C19; read-out: AC50,39.8 µM (inconclusive)
same,AC50,Cytochrome P450 2C9,39.8 µM (inconclusive)
COc1cc(OC)cc(C(=O)NCCNc2nc3cc(C)cc(C)c3cc2C#N)c1,AC50,[4],> 195 µM (inactive)
O=C(Nc1ncc(Cc2cccc([N+](=O)[O-])c2)s1)c1ccco1,AC50,[4],1.4 µM (active)
C[C@@H](CSc1ccc(Br)cc1)CN1CC[C@H](NC(=O)OCc2ccccc2)CCC1=O,AC50,[4],5.92 µM (active)
CCC(COC(=O)NC)NC(=O)Oc1ccccc1 (stereo not drawn),AC50,Cytochrome P450 1A2,39.8 µM (inconclusive)
COc1ccc(-c2sc3cc4c(cc3c2-c2ccc(OCCN3CCOCC3)cc2)OCO4)cc1,AC50,[4],0.29 µM (active)
COc1cc(OC)cc(-c2sc3ccc(OC)cc3c2C#CCO)c1,AC50,[4],4.83 µM (active)
CC#CCCCC(=O)Nc1cc(OC)nc(OC)n1,AC50,Cytochrome P450 2D6,15.8 µM (inconclusive)
CCOC(=O)Nc1ccc(C)cc1NC(=O)OCC,AC50,Cytochrome P450 2C19; read-out: AC50,14.1 µM (inconclusive)
same,AC50,Cytochrome P450 2C9,25.1 µM (inconclusive)
Cc1cc(C(C)(C)C)c(OC(=O)[C@@H]2OC(c3ccccc3)=C[C@H]2c2ccccc2)c(C(C)(C)C)c1,AC50,[4],5.03 µM (active)
COc1ccc(CCNC(=O)COC(=O)c2cnc(C)cn2)cc1,AC50,Cytochrome P450 1A2,25.1 µM (inconclusive)
same,AC50,Cytochrome P450 2C9,0.00562 µM (inconclusive)
same,AC50,Cytochrome P450 3A4,22.4 µM (inconclusive)
CCCS(=O)(=O)N1CCCC(C(=O)N2CCOCC2)C1 (stereo not drawn),AC50,Cytochrome P450 1A2,5.01 µM (inconclusive)
CCNS(=O)(=O)c1ccc(NS(C)(=O)=O)cc1,AC50,Cytochrome P450 2C19,inconclusive
same,AC50,Cytochrome P450 2C9,7.94 µM (inconclusive)
O=C(Nc1ccc(Cl)cc1C(=O)c1ccccc1Cl)c1ccco1,AC50,Cytochrome P450 1A2,2.51 µM (inconclusive)
C/C(=N/NC(=O)c1ccc(-c2ccccc2)cc1)c1cc(O)cc(O)c1,AC50,[4],2.97 µM (active)
C/C(=N\NS(=O)(=O)c1ccc(C)cc1)c1ccc(C)o1,EC50,Streptokinase A,> 150 µM (not active)
same,EC50,Streptococcus,> 150 µM (not active)
same,EC50,[1],> 150 µM (not active)
CO/N=C(/CNC(=O)c1cccc(Cl)c1)c1ccc(Cl)cc1,AC50,Cytochrome P450 2D6,25.1 µM (inconclusive)
CC(C)CN(C)c1nc(N)c(C(=O)N=C(N)N)nc1Cl [5-(N-METHYL-N-ISOBUTYL)AMILORIDE],AC50,Cytochrome P450 2C19; read-out: AC50,31.6 µM (inconclusive)
CN1CCc2cc(Cl)c(O)cc2[C@@H](c2ccccc2)C1 [SCH-23390],AC50,Cytochrome P450 1A2,39.8 µM (inconclusive)
